Values after ≈ are worked out from the molar mass of the structure shown. Active and inactive are the calls of the source. No cut-off for these calls is given here.
Experiments:
Streptococcus pneumoniae [1] = test: Inhibition of efflux pump in Streptococcus pneumoniae Spn-058 assessed as ethidium bromide uptake at 20 ug/ml
Streptococcus pneumoniae [2] = test: Antimicrobial activity against Streptococcus pneumoniae Spn-058 at 5.5 to 8 log10 CFU/ml bacterial density measured within 24 hrs; type: functional, organism-based
Streptococcus pneumoniae [3] = test: Inhibition of efflux pump in Streptococcus pneumoniae Spn-RC2 assessed as reduction in ciprofloxacin MIC at 20 ug/ml by broth microdilution method
Streptococcus pneumoniae [4] = test: Inhibition of efflux pump in Streptococcus pneumoniae Spn-RC2 assessed as change in levofloxacin MIC by agar dilution method
Streptococcus pneumoniae [5] = test: Inhibition of efflux pump in ciprofloxacin pretreated Streptococcus pneumoniae Spn-RC2 at 20 ug/ml by ethidium bromide uptake assay
Streptococcus pneumoniae [6] = test: Inhibition of efflux pump in Streptococcus pneumoniae Spn-058 assessed as change in ciprofloxacin MIC by agar dilution method
Streptococcus pneumoniae [7] = test: Inhibition of efflux pump in Streptococcus pneumoniae Spn-058 infected in one-compartment pharmacodynamic system assessed as repid killing administered levofloxacin at simulated oral dose regimen of 750 mg in human every 24 hrs measured on day 10
Streptococcus pneumoniae [8] = test: Inhibition of efflux pump in Streptococcus pneumoniae Spn-058 assessed as change in levofloxacin MIC at 20 ug/ml by broth macrodilution method
Streptococcus pneumoniae [9] = test: Inhibition of efflux pump in Streptococcus pneumoniae Spn-RC2 assessed as reduction in levofloxacin at 20 ug/ml MIC by broth microdilution method
Streptococcus pneumoniae [10] = test: Inhibition of efflux pump in Streptococcus pneumoniae Spn-058 assessed as reduction in ciprofloxacin MIC by broth microdilution method
Streptococcus pneumoniae [11] = test: Antimicrobial activity against Streptococcus pneumoniae Spn-RC2 infected in one-compartment pharmacodynamic system assessed as regrowth of bacteria administered at simulated at 750 mg dosage regimen every 12 hrs measured on day 8; type: functional, organism-based
Streptococcus pneumoniae [12] = test: Antimicrobial activity against Streptococcus pneumoniae Spn-058 assessed as bacterial load; type: functional, organism-based
Streptococcus pneumoniae [13] = test: Inhibition of efflux pump in Streptococcus pneumoniae Spn-058 infected in one-compartment pharmacodynamic system assessed as repid killing administered levofloxacin at simulated oral dose regimen of 750 mg in human every 12 hrs measured on day 6
Streptococcus pneumoniae [14] = test: Antimicrobial activity against Streptococcus pneumoniae Spn-058 infected in one-compartment pharmacodynamic system assessed as prevention of regrowth administered ciprofloxacin at simulated oral dose regimen of 750 mg in human every 12 hrs measured on day 10; type: functional, organism-based
Streptococcus pneumoniae [15] = test: Inhibition of efflux pump in Streptococcus pneumoniae Spn-058 with harboring Ser79Tyr mutation in parC gene assessed as decrease in ciprofloxacin MIC
Streptococcus pneumoniae [16] = test: Induction of efflux pump expression in Streptococcus pneumoniae Spn-058 after 5 hrs by ethidium bromide uptake assay
Streptococcus pneumoniae [17] = test: Inhibition of efflux pump in Streptococcus pneumoniae Spn-RC2 assessed as ethidium bromide uptake at 20 ug/ml
Streptococcus pneumoniae [18] = test: Inhibition of efflux pump in Streptococcus pneumoniae Spn-058 with harboring mutation in parC gene assessed as decrease in levofloxacin MIC
Streptococcus pneumoniae [19] = test: Inhibition of efflux pump in Streptococcus pneumoniae Spn-058 assessed as reduction in levofloxacin MIC by broth microdilution method
Streptococcus pneumoniae [20] = test: Inhibition of efflux pump in Streptococcus pneumoniae Spn-058 assessed as change in ciprofloxacin MIC at 20 ug/ml by broth macrodilution method
Streptococcus pneumoniae [21] = test: Inhibition of efflux pump in Streptococcus pneumoniae Spn-058 assessed as reduction in levofloxacin MIC by agar dilution method
Streptococcus pneumoniae [22] = test: Inhibition of efflux pump in Streptococcus pneumoniae Spn-RC2 assessed as change in ciprofloxacin MIC by agar dilution method
Streptococcus pneumoniae [23] = test: Induction of efflux pump expression in Streptococcus pneumoniae Spn-058 harboring mutation in gyrA gene at 20 ug/ml
Streptococcus pneumoniae [24] = test: Inhibition of efflux pump in Streptococcus pneumoniae Spn-058 assessed as change in levofloxacin MIC by agar dilution method
Streptococcus pneumoniae [25] = test: Inhibition of efflux pump in Streptococcus pneumoniae Spn-058 infected in one-compartment pharmacodynamic system assessed as repid killing administered levofloxacin at simulated oral dose regimen of 500 mg in human measured on day 6
Streptococcus pneumoniae [26] = test: Inhibition of efflux pump in Streptococcus pneumoniae Spn-058 harboring mutation in parC and […] gene assessed as decrease in ciprofloxacin MIC
Streptococcus pneumoniae [27] = test: Inhibition of efflux pump in Streptococcus pneumoniae Spn-RC2 assessed as reduction in levofloxacin MIC by agar microdilution method
Streptococcus pneumoniae [28] = test: Induction of efflux pump expression in Streptococcus pneumoniae Spn-RC2 after 5 hrs by ethidium bromide uptake assay
Streptococcus pneumoniae [29] = test: Inhibition of efflux pump in Streptococcus pneumoniae Spn-RC2 assessed as reduction in ciprofloxacin MIC by agar microdilution method
Streptococcus pneumoniae [30] = test: Inhibition of ciprofloxacin-induced efflux pump expression in Streptococcus pneumoniae Spn-058 after 5 hrs by ethidium bromide uptake assay
Streptococcus pneumoniae [31] = test: Inhibition of efflux pump in Streptococcus pneumoniae Spn-058 assessed as reduction in ciprofloxacin MIC by agar dilution method
Streptococcus pneumoniae [32] = test: Antimicrobial activity against Streptococcus pneumoniae Spn-RC2 infected in one-compartment pharmacodynamic system assessed as decrease in bacterial density administered at simulated at 500 mg QD dosage regimen for 10 days measured after 24 hrs by quantitative culture assay; type: functional, organism-based
[33] = Stability assessed as degradation half life; type: physicochemical
[34] = Half life in one-compartment pharmacodynamic system administered at simulated oral dose regimen of 500 mg in human for 10 days; type: ADME, organism-based
Streptococcus pneumoniae [35] = test: Antimicrobial activity against Streptococcus pneumoniae Spn-058 infected in one-compartment pharmacodynamic system assessed as regrowth of bacteria administered at simulated at 500 mg QD dosage regimen measured on day 6; type: functional, organism-based
Streptococcus pneumoniae [36] = test: Antimicrobial activity against Streptococcus pneumoniae Spn-058 by broth macrodilution technique in presence of 5% lysed horse blood; type: functional
Streptococcus pneumoniae [37] = test: Antimicrobial activity against Streptococcus pneumoniae Spn-058 infected in one-compartment pharmacodynamic system assessed as decrease in bacterial population administered at simulated at 750 mg dosage regimen every 12 hrs for 10 days by quantitative culture assay; type: functional, organism-based
Streptococcus pneumoniae [38] = test: Antimicrobial activity against Streptococcus pneumoniae Spn-058 infected in one-compartment pharmacodynamic system assessed as reduction in bacterial density administered at simulated at 500 mg QD dosage regimen measured on day 1; type: functional, organism-based
Streptococcus pneumoniae [39] = test: Antimicrobial activity against Streptococcus pneumoniae Spn-RC2 infected in one-compartment pharmacodynamic system assessed as regrowth of bacteria administered at simulated at 750 mg dosage regimen every 12 hrs measured on day 3; type: functional, organism-based
[40] = Free AUC (0 to 24 hrs) in one-compartment pharmacodynamic system administered at simulated oral dose regimen of 500 mg in human for 10 days; type: ADME
Streptococcus pneumoniae [41] = test: Antimicrobial activity against Streptococcus pneumoniae Spn-RC2 infected in one-compartment pharmacodynamic system assessed as decrease in bacterial population administered at simulated oral dose regimen of 500 mg in human for 10 days by quantitative culture assay; type: functional, organism-based
Streptococcus pneumoniae [42] = test: Antimicrobial activity against Streptococcus pneumoniae Spn-058 infected in one-compartment pharmacodynamic system assessed as regrowth of bacteria administered at simulated oral dose regimen of 750 mg in human every 12 hrs measured on day 2; type: functional, organism-based
Streptococcus pneumoniae [43] = test: Antimicrobial activity against Streptococcus pneumoniae Spn-RC2 by broth macrodilution technique
Streptococcus pneumoniae [44] = test: Antimicrobial activity against Streptococcus pneumoniae Spn-058 infected in one-compartment pharmacodynamic system assessed as reduction in bacterial density administered at simulated oral dose regimen of 750 mg in human every 12 hrs measured on day 1; type: functional, organism-based

## COC(=O)[C@H]1[C@H]2C[C@@H]3c4[nH]c5cc(OC)ccc5c4CCN3C[C@H]2C[C@@H](OC(=O)c2cc(OC)c(OC)c(OC)c2)[C@@H]1OC
Streptococcus pneumoniae [1]
  Activity: Active
Streptococcus pneumoniae [2]
  Activity: Active
Streptococcus pneumoniae [3]
  Activity: Active
Streptococcus pneumoniae [4]
  Activity: Active
Streptococcus pneumoniae [5]
  Activity: Active
Streptococcus pneumoniae [6]
  Activity: Active
Streptococcus pneumoniae [7]
  Activity: Active
Streptococcus pneumoniae [8]
  Activity: inactive
Streptococcus pneumoniae [9]
  Activity: Active
Streptococcus pneumoniae [10]
  Activity: Active
Streptococcus pneumoniae [11]
  Activity: inactive
Streptococcus pneumoniae [12]
  Activity: Active
Streptococcus pneumoniae [13]
  Activity: Active
Streptococcus pneumoniae [14]
  Activity: Active
Streptococcus pneumoniae [15]
  Activity: Active
Streptococcus pneumoniae [16]
  Activity: Active
Streptococcus pneumoniae [17]
  Activity: Active
Streptococcus pneumoniae [18]
  Activity: Active
Streptococcus pneumoniae [19]
  Activity: Active
Streptococcus pneumoniae [20]
  Activity: inactive
Streptococcus pneumoniae [21]
  Activity: Active
Streptococcus pneumoniae [22]
  Activity: Active
Streptococcus pneumoniae [23]
  Activity: Active
Streptococcus pneumoniae [24]
  Activity: Active
Streptococcus pneumoniae [25]
  Activity: Active
Streptococcus pneumoniae [26]
  Activity: Active
Streptococcus pneumoniae [27]
  Activity: Active
Streptococcus pneumoniae [28]
  Activity: Active
Streptococcus pneumoniae [29]
  Activity: Active
Streptococcus pneumoniae [30]
  Activity: Active
Streptococcus pneumoniae [31]
  Activity: Active
Streptococcus pneumoniae [32]
  Activity: inactive

## C[C@H]1COc2c(N3CCN(C)CC3)c(F)cc3c(=O)c(C(=O)O)cn1c23.C[C@H]1COc2c(N3CCN(C)CC3)c(F)cc3c(=O)c(C(=O)O)cn1c23.O [LEVOFLOXACIN]
[33]
  half-life: 20 h
[34]
  half-life: 7 h
Streptococcus pneumoniae [35]
  Activity: inactive
Streptococcus pneumoniae [36]
  MBC: 1 mg/L
Streptococcus pneumoniae [37]
  Activity: Active
Streptococcus pneumoniae [38]
  Activity: Active
Streptococcus pneumoniae [39]
  Activity: Active
[40]
  fAUC: 36 µg·h/mL
Streptococcus pneumoniae [41]
  Activity: Active

## O=C(O)c1cn(C2CC2)c2cc(N3CCNCC3)c(F)cc2c1=O [CIPROFLOXACIN]
Streptococcus pneumoniae [14]
  Activity: Active
Streptococcus pneumoniae [36]
  MBC: 1 mg/L
  MIC: 1 mg/L
Streptococcus pneumoniae [39]
  Activity: Active
Streptococcus pneumoniae [42]
  Activity: inactive
Streptococcus pneumoniae [43]
  MIC: 2 mg/L (≈ 6.04 µM)
Streptococcus pneumoniae [44]
  Activity: Active

Source: ChEMBL document CHEMBL1153545 (Antimicrob Agents Chemother, 2007)
